Laboratory results from the NIST ThermoML archive (doi:10.1021/je300775u).
± gives the expanded uncertainty stated by the source.

Experiment: xn = mol fraction of the nth substance listed
Conditions: 101 kPa, Liquid; for mass density: Vibrating tube method; for speed of sound: Pulse-echo method

BrCBr [dibromomethane] + CCCCCCC
Conditions	mass density, 303.15 K [kg/m3]	mass density, 308.15 K [kg/m3]	mass density, 313.15 K [kg/m3]	speed of sound, 308.15 K [m/s]	speed of sound, 313.15 K [m/s]
x1 = 0.0504	718.56 ± 0.24	714 ± 0.24	709.41 ± 0.25	1065.7 ± 0.9	1045.1 ± 0.9
x1 = 0.1039	767.19 ± 0.24	762.36 ± 0.24	757.48 ± 0.24	1044.3 ± 0.9	1024.3 ± 0.9
x1 = 0.1552	816.67 ± 0.25	811.54 ± 0.25	806.36 ± 0.25	1025.2 ± 0.9	1005.6 ± 0.9
x1 = 0.2037	866.26 ± 0.25	860.84 ± 0.25	855.37 ± 0.25	1008.2 ± 0.9	989 ± 0.9
x1 = 0.2532	920.03 ± 0.26	914.3 ± 0.26	908.53 ± 0.26	992.3 ± 0.9	973.7 ± 0.9
x1 = 0.3019	976.09 ± 0.27	970.04 ± 0.27	963.95 ± 0.27	977.6 ± 1	959.6 ± 1
x1 = 0.354	1040.23 ± 0.29	1033.82 ± 0.29	1027.38 ± 0.29	963.5 ± 1	946 ± 1
x1 = 0.4022	1103.65 ± 0.33	1096.88 ± 0.33	1090.09 ± 0.33	951.5 ± 1	934.5 ± 1
x1 = 0.4552	1178.34 ± 0.38	1171.15 ± 0.38	1163.95 ± 0.37	939.6 ± 1	923 ± 1
x1 = 0.4962	1240.03 ± 0.43	1232.54 ± 0.43	1225 ± 0.42	931.2 ± 1	914.8 ± 1
x1 = 0.5532	1332.06 ± 0.5	1324.08 ± 0.5	1316.09 ± 0.49	921.4 ± 1	905.5 ± 1
x1 = 0.6119	1435.65 ± 0.59	1427.16 ± 0.58	1418.62 ± 0.58	912.9 ± 1.1	897.5 ± 1.1
x1 = 0.6543	1516.52 ± 0.67	1507.63 ± 0.67	1498.69 ± 0.66	908 ± 1.1	893 ± 1.1
x1 = 0.7032	1617.14 ± 0.78	1607.76 ± 0.77	1598.32 ± 0.76	903.9 ± 1.1	889.2 ± 1.1
x1 = 0.7514	1724.55 ± 0.9	1714.66 ± 0.89	1704.72 ± 0.88	901.5 ± 1.1	887.2 ± 1.1
x1 = 0.8024	1848.85 ± 1	1838.4 ± 1	1827.87 ± 1	901.1 ± 1.1	887 ± 1.1
x1 = 0.8518	1981.12 ± 1.2	1970.07 ± 1.2	1958.96 ± 1.2	902.9 ± 1.2	889.3 ± 1.1
x1 = 0.9004	2123.78 ± 1.4	2112.21 ± 1.4	2100.38 ± 1.4	907.1 ± 1.2	893.8 ± 1.2
x1 = 0.9502	2285.74 ± 1.7	2273.36 ± 1.6	2260.95 ± 1.6	914.1 ± 1.2	901.1 ± 1.2
x1 = 1	2465.53 ± 1.8	2452.42 ± 1.8	2439.26 ± 1.8	924 ± 1.2	911.4 ± 1.2
